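Each compound was tested at five concentrations against cells in 96-well plates for 48 hours. Abbreviation: GI50, concentration required for 50% inhibition of growth. TGI denotes the concentration required for complete inhibition of growth.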
Key:
Assay in all cases: inhibition of tumour cell growth, NCI panel, 48 h
[1] = system: M19-MEL melanoma
[2] = system: EKVX NSCLC
[3] = system: SK-MEL-28 melanoma
[4] = system: HCT-15 colon
[5] = system: UO-31 renal
[6] = system: IGROV1 ovarian
[7] = system: DMS 114 small cell lung
[8] = system: LOX IMVI melanoma
[9] = system: RPMI-8226 leukemia
[10] = system: SR leukemia

Compound | TGI [1] | TGI [2] | TGI [3] | TGI [4] | TGI [5] | TGI [6] | TGI [7] | TGI [8] | TGI [9] | GI50 [2] | GI50 [10] | TGI [10] | GI50 [3] | GI50 [4] | GI50 [5] | GI50 [6] | GI50 [8] | GI50 [9]
Cc1cc2c(cc1C)[n+](=O)c(C(=O)/C=C/c1ccc(Cl)cc1)c(C)n2[O-] | > 100 µM | > 100 µM | 59.4 µM | > 100 µM | 39.6 µM | 63.7 µM | 94.4 µM | 50.4 µM | 60.5 µM | – | – | – | – | – | – | – | – | –
CNc1nc(C)c(-c2nc(Nc3cccc(S(N)(=O)=O)c3)ncc2F)s1 | – | 3.78 µM | 0.278 µM | 12.1 µM | 0.505 µM | 12.3 µM | – | 3.94 µM | 0.273 µM | 0.0747 µM | 0.0171 µM | 1.15 µM | 0.0319 µM | 0.048 µM | 0.035 µM | 0.0349 µM | 0.0223 µM | 0.0958 µM
Cn1cc(NC(=O)c2cc(NC(=O)Nc3cc(C(=O)Nc4cc(C(=O)NCCC(=N)N)n(C)c4)n(C)c3)cn2C)cc1C(=O)NCCC(=N)N | 83.1 µM | > 100 µM | > 100 µM | > 100 µM | > 100 µM | 68.7 µM | > 100 µM | 70.1 µM | – | – | – | > 100 µM | – | – | – | – | – | –
N=S(=O)(c1ccccc1)c1ccccc1[N+](=O)[O-] (stereo not given) | > 100 µM | > 100 µM | – | > 100 µM | > 100 µM | > 100 µM | – | – | > 100 µM | – | – | > 100 µM | – | – | – | – | – | –
CCCCCCCCCCCCCC[P+](CCCCCC)(CCCCCC)CCCCCC | – | 0.917 µM | 1.44 µM | > 100 µM | – | 25.7 µM | – | 0.497 µM | 0.0395 µM | 0.0632 µM | 0.0196 µM | 0.0608 µM | 0.101 µM | 0.27 µM | 0.29 µM | 0.0705 µM | 0.0583 µM | 0.0158 µM
CCN(CC)CC(=O)/C=C/c1ccc(C)cc1 | 32.7 µM | – | 43 µM | 46 µM | 39.8 µM | 40.4 µM | 37.9 µM | 34.4 µM | > 100 µM | – | – | 78.8 µM | – | – | – | – | – | –
O=C(Nc1ccc(Cl)cc1)c1cc2c(cc1O)[nH]c1ccccc12 | – | 7.89 µM | 15.5 µM | 13.1 µM | 12.9 µM | 18.7 µM | – | 13.1 µM | 8.45 µM | 2.16 µM | 3.44 µM | 31.6 µM | 4.41 µM | 3.24 µM | 2.86 µM | 4.31 µM | 3.48 µM | 2.71 µM
CCNc1c(C(=O)N(CC)CC)c(=O)[nH]c2ncccc12 | > 100 µM | > 100 µM | > 100 µM | > 100 µM | > 100 µM | > 100 µM | > 100 µM | > 100 µM | > 100 µM | – | – | – | – | – | – | – | – | –
CC(=N\O)/C(C)=N/O.CC(=N\O)/C(C)=N/O.CC(=N\O)/C(C)=N/O.CC(=N\O)/C(C)=N/O.[Cu].[Cu] | – | 38.2 µM | 35.4 µM | 42.1 µM | 27.3 µM | 56.2 µM | – | 35.3 µM | 63.7 µM | 19.4 µM | 24 µM | 61.4 µM | 18.8 µM | 20.6 µM | 13.4 µM | 23.8 µM | 19 µM | 27.1 µM
NS(=O)(=O)c1ccc(C2C3=C(CCCC3=O)OC3=C2C(=O)c2ccccc2C3=O)cc1 (stereo not given) | – | 2.53 µM | 2.92 µM | 3.46 µM | 2.92 µM | 1.2 µM | – | 1.04 µM | 1.99 µM | 0.699 µM | 0.47 µM | 3.88 µM | 1.42 µM | 1.33 µM | 1.55 µM | 0.347 µM | 0.136 µM | 0.41 µM
O=C1CCC2CCc3cccc4oc1c2c34 (stereo not given) | > 100 µM | > 100 µM | > 100 µM | > 100 µM | – | > 100 µM | > 100 µM | > 100 µM | > 100 µM | – | – | – | – | – | – | – | – | –
Nc1nc2c(c3ncccc13)C(c1ccc(Cl)c(Cl)c1)Cc1ncccc1-2 (stereo not given) | – | 18.4 µM | 13.9 µM | 16.1 µM | 22 µM | 28.1 µM | – | 16.2 µM | 34 µM | 4.86 µM | 2.46 µM | 13 µM | 4.07 µM | 4.36 µM | 4.99 µM | 7.83 µM | 4.4 µM | 3.81 µM
O=c1[nH]cnc2c1nnn2C1OC(CO)C(O)C1O (stereo not given) | – | > 100 µM | > 100 µM | > 100 µM | > 100 µM | > 57.7 µM | – | > 100 µM | 21.5 µM | 60.4 µM | 3.37 µM | > 100 µM | 16.7 µM | 1.21 µM | 2.75 µM | 1.27 µM | 0.779 µM | 1.33 µM
CCOC(=O)C(=O)C1C(=O)Nc2ccccc21 (stereo not given) | > 100 µM | > 100 µM | > 100 µM | – | > 100 µM | > 100 µM | > 100 µM | > 100 µM | > 100 µM | – | – | – | – | – | – | – | – | –
